Measurements: ChEMBL document CHEMBL6103543, “Exploring the rhodanine universe: Design and synthesis of fluorescent rhodanine-based derivatives as anti-fibrillar and anti-oligomer agents against α-synuclein and 2N4R tau” (Bioorg Med Chem, 2024)
Activity calls are given as the source filed them. The calls are words filed in the database; no cut-off is given here.

What was measured:
Alpha-synuclein [1] = biological target: T1, Alpha-synuclein (Homo sapiens, UniProt P37840); experiment: Inhibition of alpha-synuclein (unknown origin) oligomer formation assessed as reduction in cross linking at 100 uM preincubated with compound followed by Ru(BPY3) addition and measured after 1 sec light irradiation by coomassie blue staining based PICUP assay
Alpha-synuclein [2] = biological target: T1, Alpha-synuclein; experiment: Inhibition of recombinant alpha-synuclein (unknown origin) fibril formation assessed as thioflavin T fluorescence intensity at 100 uM measured every 20 mins by Thioflavin T fluorescence assay (reference value: 100 %)
Alpha-synuclein [3] = biological target: T1, Alpha-synuclein; experiment: Inhibition of recombinant alpha-synuclein (unknown origin) fibril formation assessed as decrease in aggregation at 100 uM incubated for 3 days by transmission electron microscopic analysis; details: time 3.0 day
[4] = biological target: Microtubule-associated protein tau (Homo sapiens) (UniProt P10636); experiment: Inhibition of Tau 0N4R (unknown origin) oligomer formation assessed as reduction in cross linking at 200 uM preincubated with compound followed by Ru(BPY3) addition and measured after 15 sec light irradiation by coomassie blue staining based PICUP assay relative to control
[5] = biological target: Amyloid-beta precursor protein (Homo sapiens) (UniProt P05067); experiment: Inhibition of HFIP-induced recombinant amyloid beta (1 to 42) (unknown origin) aggregation assessed as decrease in thioflavin T fluorescence intensity at 100 uM measured every 20 mins by Thioflavin T fluorescence assay
Alpha-synuclein [6] = biological target: T1, Alpha-synuclein; experiment: Binding affinity to alpha-synuclein fibril (unknown origin) assessed as hypsochromic shift at 1 uM incubated for 40 mins by fluorescence spectrophotometric analysis
[7] = (§1) Cytotoxicity against human M17D cells expressing doxycyclin-inducible alpha-syn-S3K::YFP inclusion-prone fusion protein assessed as reduction in cell confluency at 1.25 to 40 uM treated with compound starting from 24 hrs post plating followed by doxycyclin addition at 48 hrs and measured 96 hrs post plating by Incucyte-based analysis; format: toxicity; details: 72 h, dose 1.25-40 µM
Alpha-synuclein [8] = biological target: T1, Alpha-synuclein; experiment: Inhibition of alpha-synuclein (unknown origin) oligomer formation at 100 uM incubated for 3 days by Western blot analysis; details: time 3.0 day
[9] = biological target: Microtubule-associated protein tau (Homo sapiens) (UniProt P10636); experiment: Inhibition of recombinant Tau 2N4R (unknown origin) aggregation assessed as decrease in fluorescence intensity at 100 uM measured every 5 mins by Thioflavin S fluorescence assay
[10] = biological target: Microtubule-associated protein tau (Homo sapiens) (UniProt P10636); experiment: Inhibition of Tau 0N4R (unknown origin) oligomer formation assessed as reduction in cross linking at 100 uM preincubated with compound followed by Ru(BPY3) addition and measured after 15 sec light irradiation by coomassie blue staining based PICUP assay relative to control
Alpha-synuclein [11] = biological target: T1, Alpha-synuclein; experiment: as §1, with “Inhibition of alpha-syn inclusion formation in” for “Cytotoxicity against”, “inclusions” for “cell confluency”; format: cell-based; details: dose 1.25-40 µM, time 72.0 hrs
[12] = biological target: Amyloid-beta precursor protein (Homo sapiens) (UniProt P05067); experiment: Inhibition of amyloid beta aggregation derived from alzhemier's disease patient brain assessed as reduction in plaques at 50 uM incubated for 5 days by transmission electron microscopic analysis; details: time 5.0 day
[13] = biological target: Microtubule-associated protein tau (Homo sapiens) (UniProt P10636); experiment: Inhibition of Tau 0N4R (unknown origin) oligomer formation assessed as reduction in cross linking at 300 uM preincubated with compound followed by Ru(BPY3) addition and measured after 15 sec light irradiation by coomassie blue staining based PICUP assay relative to control
Alpha-synuclein [14] = biological target: T1, Alpha-synuclein; experiment: Inhibition of alpha-synuclein (unknown origin) oligomer formation assessed as reduction in cross linking preincubated with compound followed by Ru(BPY3) addition and measured after 1 sec light irradiation by coomassie blue staining based PICUP assay; details: dose 50-200 µM
Alpha-synuclein [15] = biological target: T1, Alpha-synuclein; experiment: Inhibition of recombinant alpha-synuclein (unknown origin) fibril formation assessed as decrease in thioflavin T fluorescence intensity measured every 20 mins by Thioflavin T fluorescence assay
[16] = biological target: Microtubule-associated protein tau (Homo sapiens) (UniProt P10636); experiment: Inhibition of recombinant phosphorylated Tau 1N4R (unknown origin) aggregation assessed as decrease in fluorescence intensity at 100 uM measured every 5 mins by Thioflavin S fluorescence assay
Alpha-synuclein [17] = biological target: T1, Alpha-synuclein; experiment: Inhibition of alpha-synuclein (unknown origin) oligomer formation assessed as reduction in cross linking at 100 uM preincubated with compound followed by Ru(BPY3) addition and measured after 1 sec light irradiation by coomassie blue staining based PICUP assay relative to control
[18] = biological target: Microtubule-associated protein tau (Homo sapiens) (UniProt P10636); experiment: Inhibition of recombinant Tau 0N4R (unknown origin) aggregation assessed as decrease in fluorescence intensity at 100 uM measured every 5 mins by Thioflavin S fluorescence assay
Alpha-synuclein [19] = biological target: T1, Alpha-synuclein; experiment: Inhibition of alpha-synuclein (unknown origin) oligomer formation assessed as reduction in cross linking at 50 uM preincubated with compound followed by Ru(BPY3) addition and measured after 1 sec light irradiation by coomassie blue staining based PICUP assay relative to control
[20] = biological target: Microtubule-associated protein tau (Homo sapiens) (UniProt P10636); experiment: Inhibition of Tau 0N4R (unknown origin) oligomer formation assessed as reduction in cross linking at 50 uM preincubated with compound followed by Ru(BPY3) addition and measured after 15 sec light irradiation by coomassie blue staining based PICUP assay relative to control
[21] = biological target: Microtubule-associated protein tau (Homo sapiens) (UniProt P10636); experiment: Binding affinity to recombinant human 2N4R fibril extracted from Escherichia coli assessed as fluorescence quenching at 1 uM incubated for 40 mins by fluorescence spectrophotometric analysis
Alpha-synuclein [22] = biological target: T1, Alpha-synuclein; experiment: Binding affinity to alpha-synuclein fibril (unknown origin) assessed as decrease in fluorescence intensity at 1 uM incubated for 60 mins by fluorescence spectrophotometric analysis
[23] = biological target: Amyloid-beta precursor protein (Homo sapiens) (UniProt P05067); experiment: Inhibition of amyloid beta aggregation derived from alzhemier's disease patient brain assessed as reduction in plaque density at 50 uM incubated for 5 days by transmission electron microscopic analysis; details: time 5.0 day
[24] = biological target: Microtubule-associated protein tau (Homo sapiens) (UniProt P10636); experiment: Inhibition of Tau 2N4R monomer (unknown origin) fibril formation assessed as decrease in aggregation at 100 uM incubated for 5 days by transmission electron microscopic analysis; details: time 5.0 day
[25] = biological target: Microtubule-associated protein tau (Homo sapiens) (UniProt P10636); experiment: Binding affinity to recombinant human 2N4R fibril extracted from Escherichia coli assessed as decrease in fluorescence intensity at 1 uM incubated for 60 mins by fluorescence spectrophotometric analysis
[26] = biological target: Microtubule-associated protein tau (Mus musculus) (UniProt P10637); experiment: Inhibition of Tau aggregation in mouse N2a cells at 15 uM incubated for 5 days by ThS staining based analysis relative to control; format: cell-based; details: time 5.0 day
[27] = as §1, with “5” for “40”; format: toxicity; details: 72 h, dose 1.25-5 µM
Alpha-synuclein [28] = biological target: T1, Alpha-synuclein; experiment: as §1, with “Inhibition of alpha-syn inclusion formation in” for “Cytotoxicity against”, “inclusions” for “cell confluency”, “5” for “40”; format: cell-based; details: dose 1.25-5 µM, time 72.0 hrs
Alpha-synuclein [29] = biological target: T1, Alpha-synuclein; experiment: as §1, with “Inhibition of alpha-syn inclusion formation in” for “Cytotoxicity against”, “inclusions” for “cell confluency”, “5” for “1.25 to 40”; format: cell-based; details: time 72.0 hrs

Microtubule-associated protein tau (Homo sapiens), sequence (P10636 whole entry): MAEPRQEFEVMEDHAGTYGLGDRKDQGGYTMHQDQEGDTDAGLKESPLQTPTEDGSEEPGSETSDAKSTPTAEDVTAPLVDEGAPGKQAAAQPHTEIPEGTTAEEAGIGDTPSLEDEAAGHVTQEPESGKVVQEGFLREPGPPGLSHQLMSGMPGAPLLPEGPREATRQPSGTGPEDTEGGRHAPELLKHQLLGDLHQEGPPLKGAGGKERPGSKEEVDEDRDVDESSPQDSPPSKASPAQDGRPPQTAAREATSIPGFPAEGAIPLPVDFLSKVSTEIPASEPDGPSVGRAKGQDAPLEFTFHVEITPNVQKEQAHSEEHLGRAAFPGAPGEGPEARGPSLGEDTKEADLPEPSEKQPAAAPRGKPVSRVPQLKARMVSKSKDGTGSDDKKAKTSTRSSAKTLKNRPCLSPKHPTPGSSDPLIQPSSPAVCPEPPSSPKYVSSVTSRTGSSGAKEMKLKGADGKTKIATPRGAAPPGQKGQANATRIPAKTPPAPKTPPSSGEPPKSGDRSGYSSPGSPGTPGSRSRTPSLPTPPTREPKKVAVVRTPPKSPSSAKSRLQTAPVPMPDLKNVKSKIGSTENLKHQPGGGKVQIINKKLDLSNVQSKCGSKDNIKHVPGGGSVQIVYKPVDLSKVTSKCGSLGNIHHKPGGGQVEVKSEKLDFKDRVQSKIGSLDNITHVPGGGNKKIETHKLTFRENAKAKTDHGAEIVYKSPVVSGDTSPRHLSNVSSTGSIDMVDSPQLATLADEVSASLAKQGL
Amyloid-beta precursor protein (Homo sapiens), sequence (P05067 whole entry): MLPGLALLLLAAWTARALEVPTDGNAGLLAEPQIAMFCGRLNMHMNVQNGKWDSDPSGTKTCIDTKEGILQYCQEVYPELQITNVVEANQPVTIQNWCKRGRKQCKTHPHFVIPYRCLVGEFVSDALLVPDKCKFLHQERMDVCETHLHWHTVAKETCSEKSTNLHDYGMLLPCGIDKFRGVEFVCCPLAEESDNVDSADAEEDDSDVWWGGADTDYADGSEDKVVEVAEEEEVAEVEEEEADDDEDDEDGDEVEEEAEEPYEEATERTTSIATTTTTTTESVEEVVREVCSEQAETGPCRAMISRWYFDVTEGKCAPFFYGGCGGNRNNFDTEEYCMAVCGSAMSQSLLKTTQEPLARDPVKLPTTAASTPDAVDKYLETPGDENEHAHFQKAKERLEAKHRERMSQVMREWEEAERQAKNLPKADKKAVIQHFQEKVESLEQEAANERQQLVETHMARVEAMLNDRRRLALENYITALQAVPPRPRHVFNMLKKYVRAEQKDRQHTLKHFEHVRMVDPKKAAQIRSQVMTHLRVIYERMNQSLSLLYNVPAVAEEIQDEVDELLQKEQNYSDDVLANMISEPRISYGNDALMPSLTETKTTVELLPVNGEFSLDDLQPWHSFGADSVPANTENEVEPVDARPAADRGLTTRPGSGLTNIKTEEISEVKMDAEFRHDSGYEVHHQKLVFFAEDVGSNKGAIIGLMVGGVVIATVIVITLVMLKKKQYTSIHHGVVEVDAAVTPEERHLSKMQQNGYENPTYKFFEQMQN
Microtubule-associated protein tau (Mus musculus), sequence (P10637 whole entry): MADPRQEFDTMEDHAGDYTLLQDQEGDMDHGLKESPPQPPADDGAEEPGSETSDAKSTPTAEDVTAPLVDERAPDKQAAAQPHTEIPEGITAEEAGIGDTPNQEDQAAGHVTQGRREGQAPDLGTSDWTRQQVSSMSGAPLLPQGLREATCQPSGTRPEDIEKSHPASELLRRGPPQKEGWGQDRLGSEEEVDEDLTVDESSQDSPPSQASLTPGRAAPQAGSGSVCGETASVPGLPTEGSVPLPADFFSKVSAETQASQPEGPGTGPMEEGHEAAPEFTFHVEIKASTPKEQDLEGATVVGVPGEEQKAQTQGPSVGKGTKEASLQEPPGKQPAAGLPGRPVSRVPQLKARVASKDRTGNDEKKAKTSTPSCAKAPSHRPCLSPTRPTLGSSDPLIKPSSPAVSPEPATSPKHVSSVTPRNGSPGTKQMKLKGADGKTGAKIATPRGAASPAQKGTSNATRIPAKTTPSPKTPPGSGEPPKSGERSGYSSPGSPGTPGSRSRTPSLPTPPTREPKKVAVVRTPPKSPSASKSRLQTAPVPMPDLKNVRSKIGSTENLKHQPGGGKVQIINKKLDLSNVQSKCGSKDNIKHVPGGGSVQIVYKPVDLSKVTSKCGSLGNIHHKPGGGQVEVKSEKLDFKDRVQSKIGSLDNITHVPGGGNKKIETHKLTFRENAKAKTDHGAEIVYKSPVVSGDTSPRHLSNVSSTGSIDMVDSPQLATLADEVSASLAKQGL

Compound | inhibition (Alpha-synuclein [1]) | Flu intensity (Alpha-synuclein [2]) [%] | also measured
COc1ccc2c(/C=C3\SC(=S)N(CCC(=O)O)C3=O)c[nH]c2c1 | inactive | > 100 | 
O=C(O)c1ccc(N2C(=O)/C(=C/c3ccc4ccccc4n3)SC2=S)cc1 | inactive | 84.3 | 
O=C(O)CCN1C(=O)/C(=C/c2ccc3ccccc3n2)SC1=S | inactive | 25 | 
O=C(O)CN1C(=O)/C(=C/c2coc3ccccc23)SC1=S | inactive | 24.7 | 
O=C(O)CCN1C(=O)/C(=C/c2nc3ccccc3s2)SC1=S | inactive | 12.1 | inhibition (Alpha-synuclein [3]): Active; Powerful Inhibition Observed
O=C(O)CCN1C(=O)/C(=C/c2csc3ccccc23)SC1=S | inactive | -0.05 | 
O=C(O)c1ccc(N2C(=O)/C(=C/c3coc4ccccc34)SC2=S)cc1 | inactive | 15.3 | 
O=C(O)CN1C(=O)/C(=C/c2ccc3ccccc3n2)SC1=S | inactive | 5.4 | 
O=C(O)CCN1C(=O)/C(=C/c2cccc3cc[nH]c23)SC1=S | Active; Weak Inhibition Observed | 14.7 | 
O=C(O)CN1C(=O)/C(=C/c2cc3ccccc3[nH]2)SC1=S | Active | 0.1 | 
O=C(O)c1ccc(N2C(=O)/C(=C/c3csc4ccccc34)SC2=S)cc1O | inactive | 56.7 | 
COc1ccc2c(/C=C3\SC(=S)N(CC(=O)O)C3=O)c[nH]c2c1 | Active | 1.9 | inhibition [4]: 70%; inhibition [5]: Active; Activity (Alpha-synuclein [6]): Active; Slight Hypsochromic Shift Observed Without Any Effect On Fluorescence Intensity; Activity [7]: Non-toxic; inhibition (Alpha-synuclein [8]): Active; inhibition [9]: Active; inhibition [10]: 50%; inhibition (Alpha-synuclein [11]): inactive; inhibition [12]: Active; inhibition [13]: 92%; inhibition (Alpha-synuclein [14]): Dose-dependent-effect; EC50 (Alpha-synuclein [15]): 8.66 µM; inhibition [16]: Active; inhibition (Alpha-synuclein [17]): 100%; inhibition [18]: Active; inhibition (Alpha-synuclein [19]): 81%; inhibition [20]: 18%; Activity [21]: Active
O=C(O)c1ccc(N2C(=O)/C(=C/c3csc4ccccc34)SC2=S)cc1 | inactive | 70.4 | 
O=C(O)CCN1C(=O)/C(=C/c2c[nH]c3ccccc23)SC1=S | Active | 1.9 | inhibition [4]: 25%; inhibition [5]: Active; Activity [7]: Non-toxic; Activity (Alpha-synuclein [22]): Active; Bathochromic Shift Of 10 Nm Observed; inhibition (Alpha-synuclein [8]): Active; inhibition [10]: 13%; inhibition (Alpha-synuclein [11]): inactive; inhibition [23]: Active; inhibition [12]: Active; inhibition [13]: 78%; inhibition (Alpha-synuclein [3]): Active; inhibition (Alpha-synuclein [14]): Dose-dependent-effect; inhibition [24]: Active; Activity [25]: Active; Bathochromic Shift Of 10 Nm Observed; EC50 (Alpha-synuclein [15]): 13.1 µM; inhibition [20]: 13%
O=C(O)c1ccc(N2C(=O)/C(=C/c3c[nH]c4ccccc34)SC2=S)cc1 | Active | 14.9 | inhibition (Alpha-synuclein [14]): Dose-dependent-effect
O=C1/C(=C/c2ccc(-c3cccc(Cl)c3)o2)SC(=S)N1Cc1nc2ccccc2[nH]1 |  |  | inhibition [26]: 70%
O=C(O)c1ccc(N2C(=O)/C(=C/c3coc4ccccc34)SC2=S)cc1O | inactive | 29.1 | 
O=C(O)CN1C(=O)/C(=C/c2cn(CCO)c3ccccc23)SC1=S | Active | 27 | 
O=C(O)c1ccc(N2C(=O)/C(=C/c3nc4ccccc4s3)SC2=S)cc1 | inactive | 31.8 | 
O=C(O)CN1C(=O)/C(=C/c2nc3ccccc3s2)SC1=S | inactive | 0.8 | inhibition (Alpha-synuclein [3]): Active; Powerful Inhibition Observed
O=C(O)c1ccc(N2C(=O)/C(=C/c3ccc4ccccc4n3)SC2=S)cc1O | inactive | > 100 | Activity [27]: Non-toxic; inhibition (Alpha-synuclein [28]): inactive
O=C(O)CN1C(=O)/C(=C/c2cccc3cc[nH]c23)SC1=S | Active; Weak Inhibition Observed | 15.1 | 
O=C(O)CCN1C(=O)/C(=C/c2coc3ccccc23)SC1=S | inactive | 31.8 | 
O=C(O)c1ccc(N2C(=O)/C(=C/c3c[nH]c4ccccc34)SC2=S)cc1O | inactive | 8.9 | inhibition (Alpha-synuclein [29]): Active; inhibition (Alpha-synuclein [3]): Active; Moderate Effect Observed; Activity [27]: Non-toxic; inhibition [24]: Active; Moderate Effect Observed
O=C(O)c1ccc(N2C(=O)/C(=C/c3nc4ccccc4s3)SC2=S)cc1O | inactive | 25 | 
O=C(O)CCN1C(=O)/C(=C/c2cc3ccccc3[nH]2)SC1=S | Active | 0.5 | 
O=C(O)CN1C(=O)/C(=C/c2csc3ccccc23)SC1=S | inactive | 3.2 | 
O=C(O)CN1C(=O)/C(=C/c2c[nH]c3ccccc23)SC1=S | Active | 10.1 | inhibition (Alpha-synuclein [14]): Dose-dependent-effect
